Bridges are numbered along the chain shown (N, C = ends). Where no end group is shown, it is not given here.

The test system of the first test is ApoL1. In words: Spot phage ELISA, ApoL1. Type of test: binding, human. The settings on record: ratio of signal for target protein over BSA background. For orientation: An ELISA detects its analyte on a solid surface through an enzyme-linked reagent.
On to “GCAFQFYLCKQDSDCLAGCVCGGTQSCG (also: bicyclic or more (positions not given here)) [ApoL1 EET I-II 38]”, for which the S/N was determined as 11.5.
Still for that read-out and setting: next, “GCAFRRHVCKQDSDCLAGCVCDKSDGCG (also: bicyclic or more (positions not given here)) [ApoL1 EET I-II 25]”: 25.7; “GCGFWKWMHGCKQDSDCLAGCVCGPNGFCG (also: bicyclic or more (positions not given here)) [ApoL1 EET I-II 46]”: 3.9.
Same read-out and setting: the result for “GCHFKVWWCKQDSDCLAGCVCDPAVICG (also: bicyclic or more (positions not given here)) [ApoL1 EET I-II 44]” reads 6.1.

The next test concerns PCSK9.
Assay: not given
The test is classed as binding, human. Conditions: ratio of signal for target protein over BSA background.
Consider “GPTQSKYGMCGGIGYSGPTVCASGTTCQVLDPYTSQCLPGAS (disulfide 10-27, 21-37 (inferred)) [PCSK9FL_CBD2]”, for which the s/n ratio came to 26.8.
Regarding “GPTQSNYGMCGGIGYSGPTVCASGTTCQVLYPTTSRCLPGAS (also: bicyclic or more (positions not given here)) [PCSK9FL_CBD1]”, the s/n ratio turned out to be 17.7.

Staying with this test, now noted: spot phage ELISA signal-to-noise on PCSK9.
Take “GCGSHFAPWFGCKQDSDCLSWLCLYAADGLW (disulfide (positions not given here)) [PCSK9 EET I-II 5]”: the S/N is listed as 18.1.
On to “GCGWWYRQWFCKQDSDCLAGCVCLETPECG (disulfide (positions not given here)) [PCSK9 EET I-II 16]”, for which the S/N was 15.7.
The same measure, in the same setting: next, “GCGYWFIQWFCKQDSDCLAGCVCGPNGFCG (disulfide (positions not given here)) [PCSK9 EET I-II 1]”: 21.8.
Take “GCGYWFKMWFCKQDSDCLAGCVCYPGASCG (disulfide (positions not given here)) [PCSK9 EET I-II 8]”: the S/N is given as 9.7.
The same measure, in the same setting: next, “GCGYWFKMWFCKQDSDCLAGCVCYPGASCG (disulfide (positions not given here)) [PCSK9 EET I-II 12]”: 15.5.
On the same count and under the same terms, the result for “GCGYWFYEWFCKQDSDCLAGCVCDPNGFCG (disulfide (positions not given here)) [PCSK9 EET I-II 20]” reads 9.0; that for “GCGYWWKHWFCKQDSDCLAGCVCGPNGFCG (disulfide (positions not given here)) [PCSK9 EET I-II 10]”, 12.1; that for “GCGYWWKQWFCKQDSDCLAGCVCGPNGFCG (disulfide (positions not given here)) [PCSK9 EET I-II 17]”, 17.6.
As to “GCGYWWRQWFCKQGSDCLAGCVCGPNGFCG (disulfide (positions not given here)) [PCSK9 EET I-II 7]”, the S/N is 20.9.
On the same count and under the same terms, next, “GCGYWWSTWFCKQDSDCLAGCVCGPNGFCG (disulfide (positions not given here)) [PCSK9 EET I-II 4]”: 15.0; “GCGYWWVQWFCKQDSDCLAGCVCGPNGFCD (disulfide (positions not given here)) [PCSK9 EET I-II 11]”: 19.1; “GCGYWWVQWFCKQDSDCLAGCVCGPNGFCD (disulfide (positions not given here)) [PCSK9 EET I-II 18]”: 20.1.
Regarding “GCGYWYRIWFCKQDSDCLAGCVCGPNGFCG (disulfide (positions not given here)) [PCSK9 EET I-II 9]”, the S/N was determined as 9.4.
Regarding “GCGYWYRVWFCKQDSDCLAGCVCQEPGPCG (disulfide (positions not given here)) [PCSK9 EET I-II 3]”, the S/N turned out to be 6.4.
In the case of “GCHEGYWWRQWFCKQDSDCLAGCVCGPNGFCG (disulfide (positions not given here)) [PCSK9 EET I-II 19]”, the S/N is recorded as 20.5.
“GCNLGYWWKQWFCKQDSDCLAGCVCERPRDCG (disulfide (positions not given here)) [PCSK9 EET I-II 2]”: the S/N is 6.1.
“GCQQGYWWWYWFCKQDSDCLAGCVCGPNGFCG (disulfide (positions not given here)) [PCSK9 EET I-II 13]”: the S/N is on record as 26.0.
Still for that read-out and setting: the result for “GCSWVPYWCKQDSDCLAGCVCWEMVWCD (disulfide (positions not given here)) [PCSK9 EET I-II 6]” reads 7.0; that for “GCWWWGRIHCKQDSDCLAGWGQHCG (disulfide (positions not given here)) [PCSK9 EET I-II 15]”, 44.9; that for “GCYHGYWYITWFCKQDSDCLAGCVCSQDEQCG (disulfide (positions not given here)) [PCSK9 EET I-II 14]”, 17.0.
The same measure, in the same setting: next, “GPAHSLFGMCGGIDYSGPTVCASGTTCHVLNPTTSHCLPRAS (disulfide (positions not given here)) [PCSK9 CBD 8]”: 5.0; “GPTHSTYGQCGGIGYSGQSVCASGTTCQVLWAALSWCLPGAS (disulfide (positions not given here)) [PCSK9 CBD 12]”: 7.8.
Consider “GPTQSAFGPCGGIGYSGPTVCASGTTCQVLSPDVSQCLPGAS (disulfide (positions not given here)) [PCSK9 CBD 5]”, for which the S/N amounted to 2.6.
The same measure, in the same setting: next, “GPTQSAYGQCGGIGYSGPTVCASGTTCQVLWPQVSWCLPGAS (disulfide (positions not given here)) [PCSK9 CBD 23]”: 13.9; “GPTQSDYGMCGGIGYSGPTVCASGTTCQVLDPYTSQCLPGAS (disulfide (positions not given here)) [PCSK9 CBD 28]”: 14.2.
Still for that read-out and setting: the result for “GPTQSEYGMCGGIGYSGPTVCASGTTCQVLDPMTSQCLPGAS (disulfide (positions not given here)) [PCSK9 CBD 3]” reads 2.6.
“GPTQSEYGMCGGIGYSGPTVCASGTTCQVLDPTTSQCLPGAS (disulfide (positions not given here)) [PCSK9 CBD 10]”: the S/N amounted to 7.2.
The same measure, in the same setting: the result for “GPTQSEYGMCGGIGYSGPTVCASGTTCQVLDPTTSQCLPGAS (disulfide (positions not given here)) [PCSK9 CBD 17]” reads 11.3; that for “GPTQSHYGLCGGIGYSGPTVCASGTTCQVLSPEFSQCLPGAS (disulfide (positions not given here)) [PCSK9 CBD 13]”, 8.0.
Still for that read-out and setting: next, “GPTQSKYGMCGGIGYSGPTVCASGTTCQVLDPYTSQCLPGAS (disulfide (positions not given here)) [PCSK9 CBD 14]”: 8.8; “GPTQSLFGMCGGIGYSGPTVCASGTTCQVLYPTTSRCLPGAS (disulfide (positions not given here)) [PCSK9 CBD 20]”: 18.0.
Same read-out and setting: next, “GPTQSMCGMCGGIGYSGPTVCASGTTCQVLDPHTSQCLPGAS (disulfide (positions not given here)) [PCSK9 CBD 18]”: 14.0.
“GPTQSMYGMCGGIGYSGPTVCASGTTCQVLDPNTSQCLPGAS (disulfide (positions not given here)) [PCSK9 CBD 11]” showed a S/N of 6.9.
On the same count and under the same terms, the result for “GPTQSNYGMCGGIGYSGPTVCASGTTCQVLYPTTSRCLPGAS (disulfide (positions not given here)) [PCSK9 CBD 1]” reads 17.7.
Same read-out and setting: the result for “GPTQSNYGMCGGIGYSGPTVCASGTTCQVLqPSTSRCLPGAS (disulfide) [PCSK9 CBD 16]” reads 11.6; that for “GPTQSNYGQCGGIGYSGPTVCASGTTCQVLWPAMSWCLPGAS (disulfide (positions not given here)) [PCSK9 CBD 15]”, 14.0.
The same measure, in the same setting: next, “GPTQSNYGQCGGIGYSGPTVCASGTTCQVLqPAMSWCLPGAS (disulfide) [PCSK9 CBD 21]”: 18.7; “GPTQSPGGICGGIGYSGPTVCASGTTCQVLSPEYSQCLPGAS (disulfide (positions not given here)) [PCSK9 CBD 19]”: 15.8.
Turning to “GPTQSQFGMCGGIGYSGPTVCASGTTCQVLDPTTSQCLPGAS (disulfide (positions not given here)) [PCSK9 CBD 2]”, the S/N was 2.5.
Still for that read-out and setting: next, “GPTQSTCGQCGGIGYSGPTVCASGTTCQVLWPTLSWCLPGAS (disulfide (positions not given here)) [PCSK9 CBD 27]”: 20.8; “GPTQSTYGQCGGIGYSGPTVCASGTTCQVLGPALSWCLPGAS (disulfide (positions not given here)) [PCSK9 CBD 9]”: 5.2; “GPTQSTYGQCGGIGYSGPTVCASGTTCQVLWPALSWCLPGAS (disulfide (positions not given here)) [PCSK9 CBD 22]”: 15.0.
Still for that read-out and setting: the result for “GPTQSTYGQCGGIGYSGPTVCASGTTCQVLWPALSWCLPGAS (disulfide (positions not given here)) [PCSK9 CBD 26]” reads 21.5; that for “GPTQSTYGRCGGIGYSGPTVCASGTTCQVLWPALSWCLPGAS (disulfide (positions not given here)) [PCSK9 CBD 4]”, 3.7.
Take “GPTQSVHGMCGGIGYSGPTVCASGTTCQVLDPFTSQCLPGAS (disulfide (positions not given here)) [PCSK9 CBD 24]”: the S/N is given as 14.8.
Same read-out and setting: next, “GPTQSVYGMCGGIGYSGPTVCASGTTCQVLDPTTSQCLPGAS (disulfide (positions not given here)) [PCSK9 CBD 25]”: 14.9; “GPTQSYGQCGGIGYSGPTVCASGTTCQVLWPQVSWCLPGAST (disulfide (positions not given here)) [PCSK9 CBD 6]”: 2.9.

For a further test, the system named is CD16A. The test is described as follows: Spot phage ELISA, CD16A. Conditions: spot phage ELISA signal-to-noise on CD16A. The test is classed as binding, human.
“GPTQSPXGSCGGIGYSGPTVCASGTTCQVLNPYLSQCLPGAS (disulfide) [CD16A CBD 4]” came in with a S/N of 16.8.
The same measure, in the same setting: next, “GPTQSVWGSCGGIGYSGPTVCASGTTCQVLNPYMSACLPGAS (disulfide (positions not given here)) [CD16A CBD 1]”: 21.0; “GPTQSWDGQCGGIGYSGPTVCASGTTCQVLSPYLSYCLPGAS (disulfide (positions not given here)) [CD16A CBD 6]”: 15.7.

The record behind these values is publication PMC10977697 (PLOS ONE, 2024).
